The structures appear in SMILES notation.

The values below come from patent US8927562B2, “Fused tricyclic inhibitors of mammalian target of rapamycin” (Merck Sharp & Dohme Corp., priority 2010, dated 2015).

The test has as its target mTOR enzyme (Homo sapiens, UniProt P42345). Description: mTOR Kinase Assay. The format is biochemical. Particulars: 5 μM ATP, 0.1 μM GSTS6K substrate. The method, then:
The mTOR assay buffer contains 10 mM hepes (pH 7.4), 50 mM NaCl, 100 μg/ml BSA, 50 mM B-glycerophosphate, 10 mM MnCl2 and 0.5 mM DTT. 20 ng of mTOR enzyme is preincubated with the compound for 10 minutes. 5 μM ATP and 0.1 μM GSTS6K is added. The reaction is incubated for one hour at 30° C. Anti phospho p70S6K (about 1.7 ng/well) and anti GSTXL665 (1:1 Ratio with the substrate GSTS6K) are added after incubating. The plates are read at least 2 hours after adding the anti phospho p70S6K and the anti GSTXL665.
Dose-response curves were plotted from inhibition data generated, each in duplicate, from 8 point serial dilutions of inhibitory compounds. Concentration of compound was plotted against % kinase activity, calculated by CPM of treated samples divided by CPM of untreated samples. To generate IC50 values, the dose-response curves were then fitted to a standard sigmoidal curve and IC50 values were derived by nonlinear regression analysis.
`Cc1cn(C2CCN(C(=O)CO)CC2)c2nc3c(-c4cnc5ccc(F)cc5c4)cnn3c(N)c12` [Example 4, 1-(4-(8-amino-3-(6-fluoroquinolin-3-yl)-7-methyl-5H-pyrazolo[1,5-a]pyrrolo[2,3-d]pyrimidin-5-yl)piperidin-1-yl)-2-hydroxyethanone] displayed an IC50 of less than 10 nM.
The compound `Nc1c2c(nc3c(-c4ccc(-c5ccccc5)nc4)cnn13)CS(=O)(=O)C2` [Example 2, 3-(6-phenylpyridin-3-yl)-5,7-dihydropyrazolo[1,5-a]6,6-dioxidothieno[3,4-d]pyrimidin-8-amine] came in with an IC50 of 10 to 100 nM.
Turning to `Cc1cn(C2CCN(C(=O)c3nnc[nH]3)CC2)c2nc3c(-c4ccc(-c5ccccc5)nc4)cnn3c(N)c12` [Example 6], the IC50 lay in the range of 10 to 100 nM.
Regarding `Cc1cn(C2CCN(C(=O)c3nnc[nH]3)CC2)c2nc3c(-c4cnn(-c5ccccc5)c4)cnn3c(N)c12` [Example 12], the half-inhibitory concentration (IC50) was 10 to 100 nM.
The compound `Cc1cn(C2CCN(C(=O)c3nnc(N)[nH]3)CC2)c2nc3c(-c4ccc(-c5ccccc5)nc4)cnn3c(N)c12` [Example 7] showed an IC50 of 10 to 100 nM.
Turning to `Cc1cn(C2CCN(C(=O)c3nnc[nH]3)CC2)c2nc3c(-c4cnc5ccc(F)cc5c4)cnn3c(N)c12` [Example 5], the concentration for half-maximal inhibition (IC50) is less than 10 nM.
The same measure for `Cc1cn(C2CCN(C(=O)CO)CC2)c2nc3c(-c4cnn(-c5ccccc5)c4)cnn3c(N)c12` [Example 13]: less than 10 nM.
The same measure for `Cc1cn(C2CCN(C(=O)CO)CC2)c2nc3c(-c4ccc(-c5ccccc5)nc4)cnn3c(N)c12` [Example 9]: less than 10 nM; for `Cc1cn(C2CCN(C(=O)c3nnc[nH]3)CC2)c2nc3c(-c4ccc(-c5ncc[nH]5)nc4)cnn3c(N)c12` [Example 14]: less than 10 nM; for `Cc1cn(C2CCN(C(=O)CO)CC2)c2nc3c(-c4ccc(-c5ncc[nH]5)nc4)cnn3c(N)c12` [Example 15]: less than 10 nM.
`Cc1cn(C2CCN(C(=O)c3cc(N)n[nH]3)CC2)c2nc3c(-c4ccc(-c5ccccc5)nc4)cnn3c(N)c12` [Example 8] showed an IC50 of 10 to 100 nM.
The same measure for `Cc1cn(C2CCN(C(=O)CO)CC2)c2nc3c(-c4ccc(-c5ccn(C)n5)nc4)cnn3c(N)c12` [Example 11]: 10 to 100 nM.
For the compound `C[C@@H](O)C(=O)N1Cc2nc3c(-c4ccc(-c5ccccc5)nc4)cnn3c(N)c2C1` [Example 1, (R)-1-(8-amino-3-(6-phenylpyridin-3-yl)-5H-pyrazolo[1,5-a]pyrrolo[3,4-d]pyrimidin-6(7H)-yl)-2-hydroxypropan-1-one], the 50% inhibitory concentration (IC50) was in the range of 10 to 100 nM.
The same measure for `Nc1c2c(nc3c(-c4ccc(-c5ccccc5)nc4)cnn13)C(NC1CCOCC1)CC2` (stereo not drawn) [Example 3, 3-(6-phenylpyridin-3-yl)-N5-(tetrahydro-2H-pyran-4-yl)-6,7-dihydro-5H-cyclopenta[d]pyrazolo[1,5-a]pyrimidine-5,8-diamine]: more than 100 nM.
For the compound `Cc1cn(C2CCN(C(=O)c3nnc[nH]3)CC2)c2nc3c(-c4ccc(-c5ccn(C)n5)nc4)cnn3c(N)c12` [Example 10], the concentration for half-maximal inhibition (IC50) was less than 10 nM.

By IC50 is commonly meant the midpoint of a concentration-inhibition curve. A low value points to greater potency.
